According to PubChem BioAssay (NCI):
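Cells were grown in 96-well plates and exposed to each compound for 48 hours at five concentrations; endpoints were interpolated linearly between bracketing concentrations, or set to the highest concentration if not reached. GI50: concentration for 50% inhibition of growth. TGI: total growth inhibition.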 Where a SMILES comes first, the peptide text is derived from it. [ ]: non-standard residue; d: D form. The star is where a group is joined. ξ: configuration not given here. X16 = COC1=CC(=O)N(C(=O)C(O*)C(C)C)C1Cc1ccccc1; ξNMe2Val = CC(C)C(C(=O)*)N(C)C; NMeV = CN[CH](C(=O)O)C(C)C

Experiments:
Test in all cases: DTP human tumour cell line panel, 48 h
A549 NSCLC = tested on: A549 NSCLC
HOP-62 NSCLC = tested on: HOP-62 NSCLC
NCI-H226 lung = tested on: NCI-H226 lung
NCI-H522 lung = tested on: NCI-H522 lung
PC-3 prostate = tested on: PC-3 prostate
SNB-19 CNS = tested on: SNB-19 CNS
SR leukemia = tested on: SR leukemia
T-47D breast = tested on: T-47D breast
TK-10 renal = tested on: TK-10 renal
BT-549 breast = tested on: BT-549 breast

What does the source list for `[N-]=N[N+]#I1OC(C(F)(F)F)(C(F)(F)F)c2ccccc21`?
TGI (A549 NSCLC): 39.2 µM; TGI (HOP-62 NSCLC): 28.4 µM; TGI (NCI-H226 lung): 54.1 µM; TGI (NCI-H522 lung): 30.5 µM; TGI (PC-3 prostate): 30.1 µM; TGI (SNB-19 CNS): > 100 µM; TGI (SR leukemia): 68.3 µM; TGI (T-47D breast): 27.7 µM; TGI (TK-10 renal): 32 µM

What does the source list for `NC1=CN(CCCO)C2=N/C(=C\c3ccco3)C(=O)N12`?
TGI (A549 NSCLC): > 100 µM; TGI (BT-549 breast): > 100 µM; TGI (HOP-62 NSCLC): > 100 µM; TGI (NCI-H226 lung): > 100 µM; TGI (NCI-H522 lung): > 100 µM; TGI (PC-3 prostate): > 100 µM; TGI (SNB-19 CNS): > 100 µM; TGI (T-47D breast): > 100 µM; TGI (TK-10 renal): > 100 µM

With `CCOC(=O)c1nc2c3c(ncn2n1)Oc1c(c(-c2ccccc2)nn1-c1ccccc1)C3c1ccc(OC)c(OC)c1` (configuration not stated) as the compound, how does the TGI (A549 NSCLC) read?
The TGI was > 100 µM.

And the TGI (BT-549 breast)?
The TGI was > 100 µM.

And the TGI (HOP-62 NSCLC)?
The TGI was 48.5 µM.

And the TGI (NCI-H522 lung)?
Its TGI is > 100 µM.

What about the TGI (PC-3 prostate) of the same compound?
Its TGI is > 100 µM.

What about the TGI (SNB-19 CNS) of the same compound?
The TGI was 82.4 µM.

And the TGI (SR leukemia)?
Its TGI is > 100 µM.

And the TGI (TK-10 renal)?
The TGI was > 100 µM.

How did the TGI (A549 NSCLC) turn out when `N#Cc1c(-c2ccco2)c2c(n(C3OC(CO)C(O)C(O)C3O)c1=S)CCCC2` (configuration not stated) was run?
Its TGI is > 100 µM.

What about the TGI (HOP-62 NSCLC) of the same compound?
The TGI was > 100 µM.

And the TGI (NCI-H226 lung)?
The TGI was > 100 µM.

What about the TGI (NCI-H522 lung) of the same compound?
Its TGI is > 100 µM.

And the TGI (PC-3 prostate)?
Its TGI is > 100 µM.

What about the TGI (SR leukemia) of the same compound?
The TGI was > 100 µM.

What about the TGI (T-47D breast) of the same compound?
The TGI was > 100 µM.

And the TGI (TK-10 renal)?
Its TGI is > 100 µM.

Which TGI (A549 NSCLC) does the source give for `CS(=O)(=O)NNS(=O)(=O)c1ccc(Br)cc1` here?
Its TGI is > 100 µM.

What about the TGI (HOP-62 NSCLC) of the same compound?
Its TGI is > 100 µM.

And the TGI (NCI-H226 lung)?
The TGI was > 100 µM.

What about the TGI (NCI-H522 lung) of the same compound?
The TGI was > 100 µM.

And the TGI (SNB-19 CNS)?
Its TGI is > 100 µM.

What about the TGI (TK-10 renal) of the same compound?
The TGI was > 100 µM.

What does the source list for `CN(C)CC1CCC/C(=C\c2ccc(N(C)C)cc2)C1=O` (configuration not stated)?
TGI (A549 NSCLC): 32.1 µM; TGI (BT-549 breast): 29.7 µM; TGI (HOP-62 NSCLC): 33 µM; TGI (NCI-H226 lung): 64 µM; TGI (NCI-H522 lung): 3.21 µM; TGI (PC-3 prostate): 32.2 µM; TGI (SNB-19 CNS): 31.9 µM; TGI (T-47D breast): 4.11 µM; TGI (TK-10 renal): 4.96 µM

`O=[N+]([O-])/C(C(Cl)=C(Cl)Cl)=C1\Nc2ccccc2O1` was tested. Which TGI (A549 NSCLC) did it give?
The TGI was > 100 µM.

And the TGI (HOP-62 NSCLC)?
The TGI was > 100 µM.

What about the TGI (NCI-H226 lung) of the same compound?
Its TGI is 59.7 µM.

What about the TGI (NCI-H522 lung) of the same compound?
Its TGI is 63.8 µM.

And the TGI (PC-3 prostate)?
Its TGI is > 100 µM.

And the TGI (SNB-19 CNS)?
Its TGI is > 100 µM.

And the TGI (SR leukemia)?
The TGI was 63.7 µM.

What about the TGI (T-47D breast) of the same compound?
Its TGI is > 100 µM.

And the TGI (TK-10 renal)?
The TGI was > 100 µM.

For `COC1=CC(=O)N(C(=O)C(OC(=O)C2CCCN2C(=O)C2CCCN2C(=O)C(C(C)C)N(C)C(=O)C(NC(=O)C(C(C)C)N(C)C)C(C)C)C(C)C)C1Cc1ccccc1` (configuration not stated) (ξNMe2Val-V[NMeV]PP-X16; configuration not given here), which GI50 (A549 NSCLC) is on record?
Its GI50 is 0.00715 µM.

And the TGI (A549 NSCLC)?
The TGI was > 4 µM.

And the GI50 (HOP-62 NSCLC)?
Its GI50 is 0.00241 µM.

What about the TGI (HOP-62 NSCLC) of the same compound?
The TGI was > 4 µM.

What about the GI50 (NCI-H226 lung) of the same compound?
Its GI50 is 0.000406 µM.

What about the TGI (NCI-H226 lung) of the same compound?
Its TGI is 1.54 µM.

What about the TGI (NCI-H522 lung) of the same compound?
The TGI was 0.00182 µM.

What about the GI50 (SNB-19 CNS) of the same compound?
The GI50 was 0.00267 µM.

What about the TGI (SNB-19 CNS) of the same compound?
The TGI was 0.118 µM.

Which results are given for `Cc1c2c(n3c(nc4ccccc43)c1C#N)N(c1ccc(Cl)cc1)CC2`?
TGI (A549 NSCLC): > 100 µM; TGI (BT-549 breast): > 100 µM; TGI (HOP-62 NSCLC): > 100 µM; TGI (NCI-H226 lung): > 100 µM; TGI (NCI-H522 lung): > 100 µM; TGI (PC-3 prostate): > 100 µM; TGI (SNB-19 CNS): > 100 µM; TGI (TK-10 renal): > 100 µM

For `COc1c(C2(c3ccc(F)cc3)SCCCS2)c(=O)c1=O`, which TGI (A549 NSCLC) is on record?
The TGI was > 100 µM.

And the TGI (BT-549 breast)?
The TGI was > 100 µM.

And the TGI (HOP-62 NSCLC)?
Its TGI is > 100 µM.

What about the TGI (NCI-H226 lung) of the same compound?
Its TGI is > 100 µM.

What about the TGI (PC-3 prostate) of the same compound?
The TGI was > 100 µM.

What about the TGI (SNB-19 CNS) of the same compound?
The TGI was > 100 µM.

What about the TGI (TK-10 renal) of the same compound?
Its TGI is > 100 µM.

`c1ccc2[nH]c(-c3nc4ccccc4o3)nc2c1` was tested. Which TGI (A549 NSCLC) did it give?
The TGI was > 100 µM.

And the TGI (HOP-62 NSCLC)?
Its TGI is > 100 µM.

What about the TGI (NCI-H226 lung) of the same compound?
The TGI was > 100 µM.

And the TGI (NCI-H522 lung)?
Its TGI is > 100 µM.

And the TGI (SR leukemia)?
The TGI was > 100 µM.

What about the TGI (TK-10 renal) of the same compound?
The TGI was > 100 µM.

Which results are given for `C=CCN1C(=O)CS/C1=N\NC(=O)c1c(C)nc2sccn12`?
TGI (A549 NSCLC): > 100 µM; TGI (HOP-62 NSCLC): > 100 µM; TGI (NCI-H226 lung): > 100 µM; TGI (NCI-H522 lung): > 100 µM; TGI (SNB-19 CNS): > 100 µM; TGI (SR leukemia): > 100 µM; TGI (TK-10 renal): > 100 µM

How did the TGI (A549 NSCLC) turn out when `Oc1c(Cl)c2nccnc2c2ccccc12` was run?
Its TGI is > 100 µM.

What about the TGI (NCI-H226 lung) of the same compound?
Its TGI is > 100 µM.

What about the TGI (NCI-H522 lung) of the same compound?
Its TGI is > 100 µM.

And the TGI (TK-10 renal)?
Its TGI is > 100 µM.

What does the source list for `O=C1CC(NC(=O)C(F)(F)F)c2c(Br)sc(N3CCC(c4ccccc4)CC3)c21` (configuration not stated)?
TGI (A549 NSCLC): > 100 µM; TGI (BT-549 breast): > 100 µM; TGI (NCI-H226 lung): 91.5 µM; TGI (NCI-H522 lung): > 100 µM; TGI (PC-3 prostate): > 100 µM; TGI (SNB-19 CNS): 78.2 µM; TGI (T-47D breast): 55.4 µM; TGI (TK-10 renal): 97.7 µM

With `Cc1ccc(OP2(=O)Oc3ccc4ccccc4c3CN2c2ccc(Cl)cc2)cc1C` (configuration not stated) as the compound, how does the TGI (A549 NSCLC) read?
The TGI was > 100 µM.

What about the TGI (HOP-62 NSCLC) of the same compound?
Its TGI is > 100 µM.

What about the TGI (NCI-H226 lung) of the same compound?
The TGI was > 100 µM.

And the TGI (NCI-H522 lung)?
Its TGI is > 100 µM.

What about the TGI (SNB-19 CNS) of the same compound?
The TGI was > 100 µM.

Which results are given for `c1cnc2c(c1)-n1cccc1C1(CCOCC1)NN2`?
TGI (A549 NSCLC): > 100 µM; TGI (NCI-H226 lung): > 100 µM; TGI (NCI-H522 lung): > 100 µM; TGI (SNB-19 CNS): > 100 µM; TGI (SR leukemia): > 100 µM; TGI (TK-10 renal): > 100 µM

`Cc1ccc(-c2cc(-c3ccco3)nc(N)n2)o1` was tested. Which TGI (A549 NSCLC) did it give?
The TGI was > 100 µM.

What about the TGI (HOP-62 NSCLC) of the same compound?
Its TGI is > 100 µM.

What about the TGI (NCI-H226 lung) of the same compound?
The TGI was > 100 µM.

What about the TGI (NCI-H522 lung) of the same compound?
Its TGI is > 100 µM.

And the TGI (SNB-19 CNS)?
Its TGI is > 100 µM.

And the TGI (SR leukemia)?
The TGI was > 100 µM.

And the TGI (TK-10 renal)?
Its TGI is > 100 µM.

What does the source list for `CC(C)(C)C1CC[C@H]2c3c([nH]c4ccc(Br)cc34)[C@H]3C(=O)N(c4ccccc4)C(=O)[C@H]3[C@H]2C1` (some centres not stated)?
TGI (A549 NSCLC): > 100 µM; TGI (HOP-62 NSCLC): > 100 µM; TGI (NCI-H226 lung): 81.8 µM; TGI (NCI-H522 lung): 69.3 µM; TGI (SNB-19 CNS): 66.9 µM; TGI (SR leukemia): 12.1 µM; TGI (TK-10 renal): > 100 µM

`C=C/C(C)=C/[C@H](C)C(=O)C[C@H](O)CC1CC(=O)NC(=O)C1` was tested. Which TGI (A549 NSCLC) did it give?
Its TGI is > 100 µM.

And the TGI (HOP-62 NSCLC)?
The TGI was > 91.1 µM.

What about the TGI (NCI-H226 lung) of the same compound?
The TGI was > 100 µM.

And the TGI (NCI-H522 lung)?
Its TGI is > 87.8 µM.

What about the TGI (SNB-19 CNS) of the same compound?
The TGI was > 94.7 µM.
